Source: US12344852B2, “Control of phenotype in plants” (GREENVENUS, LLC, priority 2016, dated 2025)

Tests used:
[1] = test system: barstar gene under EcR-based switch; assay: barstar expression by qRT-PCR in leaf and floral tissues of ID06 plants; format: in vivo, Arabidopsis; details: 250 nM vs water
[2] = test system: IP:FT (ID14) transgenic ft mutant Arabidopsis plants; assay: Induction of flowering in IP:FT (ID14) transgenic ft mutant plants by ligand spray; format: in vivo
Protocol: Briefly, the DNA constructs shown in FIG. 3 were transformed into homozygous ft mutant Arabidopsis by flower dipping method. T1 seeds were harvested and germinated in soil. 5 days old T1 seedlings were sprayed with LIBERTY® 280SL herbecide to kill off non-transgenic plants. Selected transgenic plants were analyzed by Bar-specific quantitative PCR (qPCR) to check transgene copy number. Events with low copy number of the transgenes were grown in growth chambers to evaluate phenotypes. […] Select T1 plants were grown to maturity and seeds were used to generate T2 and T3 progeny plants. Further detailed evaluation of the transgenic lines were done in T2 and T3 generation plants (as described in Example 7).
At day 11, the ID14 plants produced more flowers and pods while the ft mutant plant just started bolting.
T2 seeds were harvested from ID14 T1 plants and several experiments were designed to test if the EcR gene switch is tightly controlling the transgenic FT expression in the absence of the activator ligand, and if the switch can be easily turned on by applying the ligand to express enough FT to induce early flowering. T2 seeds from six independent ID14 lines (three with single copy of the transgene and three—with two copies) were planted along with wild-type Arabidopsis and ft mutant and grown under long day (16 hours) and short day (8 hours) photoperiods. Genotype of these T2 plants: homozygous, heterozygous, and null were assessed by TaqMan qPCR as described in Example 7 with the exception of utilizing only the Bar gene-specific primers and probes Bar-F1/Bar-R1/Bar-T1 and the same PDS endogenous control AtPDS-F1/AtPDS-R1/AtPDS-T1. The T2 plants segregated the transgene as a single gene following the Mendelian inheritance.
The homozygous plants and null segregants that served as isogenic negative controls were subject to treatment with water (as a control) and 2 concentrations of methoxyfenozide: low (250 nM) and high (2.5 μM). Plants were treated in groups of 2 pots with 5 plants in each at short and long day photoperiods. Treatments were administered every other day starting from day 19 (long day) and 25 (short day) after planting and continued for about three weeks until all plants flowered.
ID14 T2 plants were maintained to maturity and T3 seeds were collected for further characterization of a selected single-copy line ID14-50. The homozygous and null segregant T3 plants along with Arabidopsis ft mutant plants were grown for three weeks before starting ligand application. Plants were divided in four groups in which up to twelve individual plants per genotype were counted. Each group was treated with different concentrations of methoxyfenozide (10, 50 and, 250 nM) and one group was mock treated (water). Treatments were applied every other day from day 17 (long day) or 24 (short day) for a period of approximately three weeks or until all plants flowered.
The observation was done over a period of ninety days from the day of planting. In both short day and long day photoperiod, the homozygous T3 ID14-50 plants exposed to ligand started flowering as early as fourteen days before any null plants and ft mutants while the untreated plants flowered at a similar time with null and ft mutant plants as shown in FIG. 18.

[3] = test system: FT gene under EcR-based gene switch; assay: FT expression by qRT-PCR over the time-course of induction in ID14-50 plants; format: in vivo, Arabidopsis; details: homozygous ID14-50 T3 plants, all concentrations (10, 50, 250 nM), long and short day photoperiod
Source text: FT expression was characterized at five time-points over the time-course of induction. One leaf per plant was collected at time-zero before ligand application corresponding to 17 and 24 days old plants in long and short day photoperiod, at one day after treatment started corresponding to 18 and 25 days old plants, four days after treatment started corresponding to 21 and 28 days old plants, seven days after ligand application started corresponding to 24 and 31 days old plants and, eleven days after treatment started corresponding to 28 and 35 days old plants for RNA extraction using a Qiagen RNA easy kit. First-strand cDNA was synthesized from the total RNA to be used as template for qRT-PCR analysis. qRT-PCR was set-up as previously described for T2 characterization. […] For most homozygous plants FT expression stayed relatively high and to a similar level from day one to day seven post-treatment before going down a little by day eleven post-treatment. For all time points, tissue was collected at the end of a period of induction, right before treatment was re-applied. […] FT expression in mock-treated plants as well as null and mutant treated plants stayed very low for the most part over the eleven days of treatment. In all genotypes, there is a large variation in FT expression among individual plants in the groups of siblings.

GUS reporter gene = assay: Ligand inducible GUS silencing (Agro-infiltration, X-gluc staining) in DCL1/DCL2/GUS hairpin petunia lines; format: cell-based
Protocol: Assay for Agro-infiltration. Transient β-glucoronidase (GUS) expression, was modified from previously reported literature (Wroblewski et al. (2005) Plant Biotechnol. J. 3(2):259-273). Specifically, Agrobacterium tumefaciens strain EHA105 containing an appropriate plasmid for GUS expression was grown overnight to an OD600 of 0.8 and re-suspended in induction buffer with the following components: MS basal medium (Sigma-Aldrich), 10 mM MgCl2, and 100 uM acetosyringone. After 4 hours, induced culture suspension was infiltrated into detached fully expanded petunia leaves (approximately 0.1 mL/leaf). Leaves were incubated in a humidity chamber at 28° C. for 3 days.
Histochemical X-gluc staining for GUS visualization. […]
Ligand inducible hairpin expression for dsRNA synthesis targeting two Botrytis cinerea genes and the GUS reporter gene. Ligand inducible expression of the DCL1/DCL2/GUS hairpin cassette was evaluated using the transient Agrobacterium-mediated GUS expression as described above only detached leaves were sprayed with 50 uM ligand or mock treated with water prior to Agro-infiltration. […]
Eight independent Switch-DCL1/DCL2/GUS petunia lines were evaluated by detaching 6 leaves from each line and splitting into two treatments. […]

With `COc1cccc(C(=O)NN(C(=O)c2cc(C)cc(C)c2)C(C)(C)C)c1C` [methoxyfenozide, 3-methoxy-2-methylbenzoic acid 2-(3,5-dimethylbenzoyl)-2-(1,1-dimethylethyl)hydrazide] the expression of barstar [1] was “dramatically increased”, the “flowering of non-flowering IP:FT plants after spray” value ([2]; T1 ID14 plants sprayed with ligand) was “induced flowering and allowed for normal seed set” and the “time until treated ID14 plants started bolting” value ([2]; T1 plants not flowering within 3 weeks, 2.5 μM every other day, ft mutant did not) was at most 5 days. The “time after the first application until ID14 plants started to flower” value ([2]; T2 ID14 plants, ft mutant and untreated ID14 plants did not flower) was “Five”, the “flowered earlier than ft mutant plants” value ([2]; homozygous T2 ID14-50 plants, 250 or 2500 nM) was 22 to 30 days and the induction of flowering ([2]; homozygous T2 ID14 plants, 250 nM and 2.5 μM every other day) was “clearly observed in most homozygous plants”. The “started flowering before any null plants and ft mutants” value ([2]; homozygous T3 ID14-50 plants, 10, 50, 250 nM, short day and long day photoperiod) was “fourteen”, the “biomass production (number of rosette leaves as a proxy)” value ([2]; homozygous T3 ID14-50 plants, all ligand concentrations, both photoperiods) was “strong decrease” and the FT expression [3] was “increases as early as one day post-treatment”. For the same compound, the “GUS expression in constitutive controls DCL-25 and DCL-6” value (GUS reporter gene; 50 uM ligand vs water) was “did not show any ligand induced changes to GUS expression” and the “GUS expression in Switch DCL-8 line” value (GUS reporter gene; 50 uM sprayed on detached leaves twice, Agro-infiltration at 3 days, X-gluc staining 3 days later, listed as ligand) was “ligand induced GUS silencing”.
